{"source": "patent US7678390B2", "about": "“Carbon monoxide as a biomarker and therapeutic agent” (priority 1999, dated 2010)", "key": {"[1]": {"tested_on": "rats given lipopolysaccharide", "test": "LPS-induced neutrophil influx into the airways of rats", "type": "in vivo, rat", "conditions": "LPS 3 mg/kg i.v., exposed to CO", "experimental": "Animals were anesthesized with sodium pentobarbital 24 h after LPS administration or 56 h of hyperoxia exposure. BAL (35 ml/kg) was performed 4 times with PBS (pH 7.4). Cells were pooled from the lavages and centrifuged at 1200 g for 10 min. The supernatant was discarded and cells were resuspended in PBS. Cell counts were performed using a Neubaur hemocytometer. For differential analysis, samples were cytocentrifuged and stained with Diff-Quik. Measurement of Injury Markers Rats were removed at 56 h of hyperoxia and anesthetized with sodium pentobarbital. The pleural effusion was collected by inserting an 18 gauge needle and 10 cc syringe through the diaphragm and withdrawing all fluid present in the pleural cavity. BAL was performed as described above, and the first lavage was centrifuged at 1200 g for 10 min and the supernatant was assayed for the protein albumin as determined by Bromcresol Green Kit (BCG) from Sigma (St. Louis, Mo.). […] At each time point, 1 cc of blood was drawn into a heparinized syringe, sealed and placed on ice until analyzed for oxygen tension. Arterial oxygen tension and carboxyhemoglobin were determined using a BG3 Instrumentation Laboratory Blood Gas Analyzer and Co-oximeter (Boston, Mass.). […]"}, "[2]": {"tested_on": "ERK1/ERK2", "test": "LPS-induced MAP kinase activation, Western blot (ERK1/ERK2)", "type": "cell-based, mouse", "conditions": "RAW 264.7 macrophages, LPS in the presence of CO", "excerpt": "Animals. Male C57BL/6 and IL-10 (−/−) mice were purchased from Jackson Laboratory (Bar Harbor, Me.), and allowed to acclimate for one week with rodent chow and water ad libitum. The MKK (−/−) mice were generated as previously described [Lu, et al., EMBO J. 18:1845-1857 (1999)]. Wild type littermates were used as controls. All animals were housed in accordance with guidelines from the American Association for Laboratory Animal Care and Research Protocols and were approved by the Animal Care and Use Committee of Yale University School of Medicine. Reagents. All reagents were purchased from Sigma Chemical Co. (St Louis, Mo.) unless specified otherwise. Plasmid Construct. Plasmid pSFFV/HO-1 was constructed by insertion of the rat HO-1 cDNA [Shibahara, et al., Proc. Natl. Acad. Sci. USA. 82: 7865-7869 (1985)] downstream of the Friend spleen focus-forming virus 5′ long-terminal repeat in the mammalian expression vector pSFFV/neo [Fuhlbrigge, et al, Proc. Natl. Acad. Sci. USA. 85: 5649-5653 (1988)] (kindly provided by Stanley Korsmeyer). Transfection. […] Gas samples were taken by the analyzer through a port in the top of the chambers at a rate of 1 L/min and analyzed by electrochemical detection, with a sensitivity of 10-600 ppm. Concentration levels were measured hourly and there were no fluctuations in the CO concentrations once the chamber had equilibrated (approximately 5 min). […]"}, "[3]": {"tested_on": "rats", "test": "Tolerability of low concentrations of CO in rats", "type": "in vivo, rat", "excerpt": "Animals were exposed to >98% O2 or 98% O2+CO mixtures at a flow rate of 12 liters/min in a 3.70-cubic-foot glass exposure chamber. Animals were supplied food and water during the exposures. CO at a concentration of 1% (10,000 ppm) in compressed air was mixed with >98% O2 in a stainless steel mixing cylinder prior to entering the exposure chamber. By varying the flow rates of CO into the mixing cylinder, concentrations delivered to the exposure chamber were controlled. Because the flow rate was primarily determined by the O2 flow, only the CO flow was changed to generate the different concentrations delivered to the exposure chamber. A carbon monoxide analyzer (Interscan Corporation, Chatsworth, Calif.) was used to measure CO levels continuously in the chamber. Gas samples were taken by the analyzer through a port in the top of the exposure chamber at a rate of 1 liter/min and analyzed by electrochemical detection with a sensitivity of 10 ppm to 600 ppm. CO levels in the chamber were recorded at hourly intervals and there were no changes in chamber CO concentrations once the chamber had equilibrated. O2 concentrations in the chamber were determined using a gas spectrometer."}}}
{"smiles": "[C-]#[O+]", "note": "[CO, carbon monoxide]", "values": [{"measurement": "LPS-induced neutrophil influx into the airways", "setting": "[1]", "value": "significantly inhibited"}, {"measurement": "LPS-induced ERK1/ERK2 MAP kinase activation", "setting": "[2]", "value": "not affected"}, {"measurement": "500 ppm as fraction of the lethal concentration of CO", "setting": "[3]; in our model (data not shown)", "value": "one twentieth"}, {"measurement": "untoward effects", "setting": "[3]; rats exposed to CO (50-500 ppm) alone", "value": "did not exhibit any untoward effects"}]}
